Data published in publication PMC10818600, “In Silico Design, Synthesis, and Evaluation of Novel Enantiopure Isoxazolidines as Promising Dual Inhibitors of α-Amylase and α-Glucosidase” (Molecules, 2024).
Several values for one entry are separate records, joined by “and”; a condition that tells them apart may be missing. Equal values may be shown once.

Tests used:
Format in all cases: biochemical
[1] = target: T1, human pancreatic α-amylase (Homo sapiens, UniProt P04746); assay: α-amylase inhibition assay; settings: for IC50: mean ± standard error, triplicates
T1 sequence (P04746 16-511): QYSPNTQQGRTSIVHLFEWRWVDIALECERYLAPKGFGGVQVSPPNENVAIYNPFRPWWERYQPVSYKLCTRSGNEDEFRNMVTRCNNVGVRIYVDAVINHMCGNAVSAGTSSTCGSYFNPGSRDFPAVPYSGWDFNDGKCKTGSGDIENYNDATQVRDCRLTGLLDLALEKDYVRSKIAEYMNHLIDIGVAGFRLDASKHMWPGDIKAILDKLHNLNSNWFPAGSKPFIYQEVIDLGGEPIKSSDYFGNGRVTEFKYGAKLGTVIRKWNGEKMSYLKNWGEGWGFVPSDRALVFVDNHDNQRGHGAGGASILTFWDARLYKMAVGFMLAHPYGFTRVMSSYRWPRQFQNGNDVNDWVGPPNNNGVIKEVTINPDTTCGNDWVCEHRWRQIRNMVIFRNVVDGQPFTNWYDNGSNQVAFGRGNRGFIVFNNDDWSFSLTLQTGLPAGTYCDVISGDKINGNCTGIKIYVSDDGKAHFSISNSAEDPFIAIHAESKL
Description: (§1) The inhibitory potential of the synthesized analogs against human pancreatic α-amylase and human lysosomal acid-α-glucosidase enzymes was carried out using the same protocol as described previously with slight modification. […] The percent of inhibition for both enzymes was calculated via the following formula: % inhibition=Abs(blank)−Abs(test compoud)/Abs (blank)×100
(§2) The results were expressed as IC50 (μM), and all the experiments were carried out in triplicates.

[2] = target: human lysosomal acid-α-glucosidase (Homo sapiens, UniProt P10253); assay: α-glucosidase inhibition assay; settings: for IC50: mean ± standard error, triplicates
Description: as §1, §2

α-amylase = target: T2, α-amylase (Homo sapiens, UniProt P04746); assay: enzyme kinetic study, mode of α-amylase inhibition (Lineweaver–Burk)
T2 sequence (P04746 16-511): T1 sequence (P04746 16-511)
Description: (§3) The kinetic studies were carried out based on the above IC50 values. […] A volume of 20 μL was incubated for 15 min at 30 °C using varying concentrations of the inhibitor 5d against α-amylase (0, 5, 25, and 35 μM) and α-glucosidase ([…]) with varying concentrations of inhibitor substrate (starch) in the range 0.3 to 8 mM, whereas concentrations for the inhibitor substrate (p-nitrophenyl-α-D-glucopyranoside, PNPg) were in the range 0.1–1.3 mM, respectively. This was conducted according to the same protocol as previously described, with slight modifications. The type of enzyme inhibition was assessed by preparing Lineweaver–Burk plots of the inverse of the velocities (1/V) versus the inverse of the substrate’s concentration 1/[S] mM^−1, and the change in absorbance was measured spectrophotometrically at 405 nm. The constant of inhibition, Ki, was determined through the secondary plot of the slope versus the inhibitor concentration.

α-glucosidase = α-glucosidase (Homo sapiens, UniProt P10253); assay: enzyme kinetic study, mode of α-glucosidase inhibition (Lineweaver–Burk)
Description: as §3

[3] = ratio of IC50 values vs acarbose

Row | Structure (SMILES) | IC50 [1] [µM] | IC50 [2] [µM] | α-amylase inhibitory activity, fold higher than that of acarbose [1, 3] | α-glucosidase inhibitory activity, fold higher than that of acarbose [2, 3] | mode of α-amylase inhibition (α-amylase; Lineweaver–Burk plot: Vmax unchanged, Km increased) | Ki (α-amylase; estimated from secondary re-plot of Lineweaver–Burk plots, substrate starch, read-out: inhibition constant Ki, α-amylase) [µM] | mode of α-glucosidase inhibition (α-glucosidase; Lineweaver–Burk plot: Km increases, Vmax constant) | Ki (α-glucosidase; estimated from slope vs inhibitor concentration, substrate PNPg, read-out: inhibition constant Ki, α-glucosidase) [µM]
1 | COc1cc(C[C@@H]2C[C@@H]3C(=O)N(C)C4(C[C@H](C)CC[C@H]4C(C)C)N3O2)ccc1OCC(=O)NNC(=O)Nc1ccc(Br)cc1 (stereo partly drawn) [5f, N-(4-bromophenyl)-2-(2-(4-(((2S,2′R, 3a’R, 5R)-2-isopropyl-5,5′-dimethyl-4′-oxotetrahydro-2′H-spiro[cyclohexane-1,6′-imidazo[1,5-b]isoxazol]-2′-yl)methyl)-2-methoxyphenoxy)acetyl)hydrazine-1-carboxamide] | 183.8 ± 0.498 | 204.6 ± 0.41 | – | – | – | – | – | –
2 | Cc1cccc(C[C@@H]2C[C@@H]3C(=O)N(C)C4(C[C@H](C)CC[C@H]4C(C)C)N3O2)c1OCC(=O)NNC(=O)Nc1ccc(Cl)cc1 (stereo partly drawn) [5e, N-(4-chlorophenyl)-2-(2-(2-(((2S,2′R,3a’R,5R)-2-isopropyl-5,5′-dimethyl-4′-oxotetrahydro-2′H-spiro[cyclohexane-1,6′-imidazo[1,5-b]isoxazol]-2′-yl)methyl)-6-methylphenoxy)acetyl)hydrazine-1-carboxamide] | 232.8 ± 0.517 | 258.7 ± 0.521 | – | – | – | – | – | –
3 | Cc1cccc(C[C@@H]2C[C@@H]3C(=O)N(C)C4(C[C@H](C)CC[C@H]4C(C)C)N3O2)c1OCC(=O)NNC(=O)Nc1cccc2ccccc12 (stereo partly drawn) [5d, 2-(2-(2-(((2S,2′R,3a’R,5R)-2-isopropyl-5,5′-dimethyl-4′-oxotetrahydro-2′H-spiro[cyclohexane-1,6′-imidazo[1,5-b]isoxazol]-2′-yl)methyl)-6-methylphenoxy)acetyl)-N-(naphthalen-1-yl)hydrazine-1-carboxamide] | 53.03 ± 0.106 | 94.33 ± 0.282 | 5.6 fold and 5.59 fold | 8.3 fold and 8.27 fold | competitive | 31.9 | competitive | 89.5

Now from value to compound, other results behind:

Row | IC50 [1] [µM] | IC50 [2] [µM] | Structure (SMILES) | α-amylase inhibitory activity, fold higher than that of acarbose [1, 3] | α-glucosidase inhibitory activity, fold higher than that of acarbose [2, 3] | mode of α-amylase inhibition (α-amylase; Lineweaver–Burk plot: Vmax unchanged, Km increased) | Ki (α-amylase; estimated from secondary re-plot of Lineweaver–Burk plots, substrate starch, read-out: inhibition constant Ki, α-amylase) [µM] | mode of α-glucosidase inhibition (α-glucosidase; Lineweaver–Burk plot: Km increases, Vmax constant) | Ki (α-glucosidase; estimated from slope vs inhibitor concentration, substrate PNPg, read-out: inhibition constant Ki, α-glucosidase) [µM]
4 | 92.28 ± 0.276 | 120.9 ± 0.333 | Cc1cccc(C[C@@H]2C[C@@H]3C(=O)N(C)C4(C[C@H](C)CC[C@H]4C(C)C)N3O2)c1OCC(=O)NNC(=O)Nc1cccc(Cl)c1 (stereo partly drawn) [5c, N-(3-chlorophenyl)-2-(2-(2-(((2S,2′R,3a’R,5R)-2-isopropyl-5,5′-dimethyl-4′-oxotetrahydro-2′H-spiro[cyclohexane-1,6′-imidazo[1,5-b]isoxazol]-2′-yl)methyl)-6-methylphenoxy)acetyl)hydrazine-1-carboxamide] | – | – | – | – | – | –
5 | 134.8 ± 0.411 | 170.8 ± 0.358 | COc1cc(C[C@@H]2C[C@@H]3C(=O)N(C)C4(C[C@H](C)CC[C@H]4C(C)C)N3O2)ccc1OCC(=O)NNC(=O)Nc1ccc(F)cc1 (stereo partly drawn) [5g, N-(4-fluorophenyl)-2-(2-(4-(((2S,2′R,3a’R,5R)-2-isopropyl-5,5′-dimethyl-4′-oxotetrahydro-2′H-spiro [cyclohexane-1,6′-imidazo[1,5-b]isoxazol]-2′-yl)methyl)-2-methoxyphenoxy)acetyl)hydrazine-1-carboxamide] | – | – | – | – | – | –
6 | 120.3 ± 0.306 | 152.3 ± 0.367 | Cc1cccc(C[C@@H]2C[C@@H]3C(=O)N(C)C4(C[C@H](C)CC[C@H]4C(C)C)N3O2)c1OCC(=O)NNC(=O)Nc1ccc(F)cc1 (stereo partly drawn) [5a, N-(4-fluorophenyl)-2-(2-(2-(((2S,2′R,3a’R,5R)-2-isopropyl-5,5′-dimethyl-4′-oxotetrahydro-2′H-spiro[cyclohexane-1,6′-imidazo[1,5-b]isoxazol]-2′-yl)methyl)-6-methylphenoxy)acetyl)hydrazine-1-carboxamide] | – | – | – | – | – | –
7 | 67.4 ± 0.202 | 118.9 ± 0.325 | Cc1cccc(C[C@@H]2C[C@@H]3C(=O)N(C)C4(C[C@H](C)CC[C@H]4C(C)C)N3O2)c1OCC(=O)NNC(=O)Nc1ccc(Cl)c(C(F)(F)F)c1 (stereo partly drawn) [5b, N-(3-trifluoromethyl-4-chlorophenyl)-2-(2-(2-(((2S,2′R,3a’R,5R)-2-isopropyl-5,5′-dimethyl-4′-oxotetrahydro-2′H-spiro[cyclohexane-1,6′-imidazo[1,5-b]isoxazol]-2′-yl)methyl)-6-methylphenoxy)acetyl)hydrazine-1-carboxamide] | – | – | – | – | – | –
